Consider one molecule from patent publication US20250177419A1, “PHARMACEUTICAL COMPOSITION COMPRISING NICLOSAMIDE OR PHARMACEUTICALLY ACCEPTABLE SALT THEREOF AND PREPARATION METHOD THEREFOR” (WEBIOTREE CO., LTD, priority 2022, published 2025).

The test system of test [1] is SARS-CoV-2 Omicron (B11529). The test is described as follows: Antiviral efficacy test in Vero E6 cells, qRT-PCR viral genome copy, Omicron. In kind it is cell-based. In general terms: In qPCR the cycle at which signal appears reflects the starting amount.
Test [2] concerns Beta and Omicron variants of SARS-CoV-2. Briefly: Antiviral efficacy test in Vero E6 cells, qRT-PCR viral genome copy. Type of test: cell-based.

For `O=C(Nc1ccc([N+](=O)[O-])cc1Cl)c1cc(Cl)ccc1O` [niclosamide], the “antiviral efficacy against the Omicron variant compared to the Beta variant” value in test [1] is given as “more than four times higher antiviral efficacy”. Moreover, the “effectiveness in inhibiting viral proliferation compared to remdesivir” value in test [2] is “over 1.7 times”.
